This passage reports TGI results from PubChem BioAssay (NCI).

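The compound was tested at five concentrations on cells cultured in 96-well plates, with a 48-hour exposure period. TGI marks complete inhibition of growth.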

One assay relates to HOP-62 NSCLC. Briefly: growth of human tumour cells (NCI), 48 h.
`Clc1ccc(CCN(CCc2ccc(Cl)c(Cl)c2)CCN2CCCC2)cc1Cl` had a TGI of 3.03 µM.
Take `O=C(O)CO[C@@]12C#C/C=C\C#C[C@@H]3N(C(=O)Oc4ccccc4)c4ccccc4[C@]14O[C@@]34CCC2`: the TGI is over 100 µM.
Still for that read-out and setting: for `CC1C2CC(C(S(=O)(=O)O)C2=O)C1(C)C` (centres undefined) the value was over 100 µM; for `COc1ccc(/C=C2\N=C(N3CCCCC3)NC2=O)cc1`, over 100 µM.
Compound `CC(C)NC(=O)OCc1c2c(n(C)c1COC(=O)NC(C)C)-c1cc(Cl)c(Cl)cc1CC2` showed a TGI of over 100 µM.
As to `Cc1ccc(C2(O)CSC(=NC34CC5CC(CC(C5)C3)C4)N2C(P(=O)(O)O)P(=O)(O)O)cc1` (centres undefined), the TGI is over 100 µM.
The same measure, in the same setting: for `CNc1ncccc1Nc1cc(=O)n2c3cccnc3n(C)c2c1` the value was over 100 µM; for `CC1(C)C2CCC1(C)C(N/C(Sc1ccccc1)=C(/C(Cl)=C(Cl)Cl)[N+](=O)[O-])C2` (centres undefined), 62.9 µM; for `O=C(NC1=C(Cl)C(=O)c2ccccc2C1=O)c1ccccc1`, over 100 µM.
The same measure, in the same setting: the value for `C/C(=N\NS(=O)(=O)c1ccc(C)cc1)c1ccccn1` was over 100 µM; that for `CN(/N=C/c1ccc(C(=O)O)cc1)C1=NCCCCN1` was over 100 µM.
Still for that read-out and setting: for `COc1ccc2nc(N/N=C/c3sccc3C)cc(C)c2c1` the value was 36.3 µM; for `C=C(C)C1CCC(C(=O)O)CC1` (centres undefined), over 100 µM; for `C=CCCON(C(=O)OC(C)(C)C)c1ccccc1`, over 100 µM.
The compound `CC[C@@H](C)[C@H](NC(=O)[C@H](Cc1ccccc1)NCC(F)(F)F)C(=O)OC(C)(C)C` registered a TGI of over 100 µM.
As to `C=CCn1c(N)c(C#N)c(C#N)c1CCC`, the TGI was over 100 µM.
The same measure, in the same setting: for `CCCCCCCC(CC(=O)NC(CO)C(=O)NC(CO)CC(C)C)OC(=O)CC(CCCCCCC)OC(=O)CC(CCCCCCC)OC1OC(C)C(O)C(OC2OC(C)C(OC(C)=O)C(O)C2O)C1O` (centres undefined) the value was 31.2 µM.
Still for that read-out and setting: the value for `O=C1C2=Cc3ccccc3OC2(O)Oc2cc3ccccc3cc21` (centres undefined) was over 100 µM.

A further assay concerns SK-MEL-2 melanoma. Description: growth of human tumour cells (NCI), 48 h.
For `Clc1ccc(CCN(CCc2ccc(Cl)c(Cl)c2)CCN2CCCC2)cc1Cl`, the TGI worked out at 3.04 µM.
The same measure, in the same setting: the value for `O=C(O)CO[C@@]12C#C/C=C\C#C[C@@H]3N(C(=O)Oc4ccccc4)c4ccccc4[C@]14O[C@@]34CCC2` was 32.2 µM.
Still for that read-out and setting: for `COc1ccc(/C=C2\N=C(N3CCCCC3)NC2=O)cc1` the value was over 100 µM; for `CC(C)NC(=O)OCc1c2c(n(C)c1COC(=O)NC(C)C)-c1cc(Cl)c(Cl)cc1CC2`, 72.8 µM.
The same measure, in the same setting: the value for `Cc1ccc(C2(O)CSC(=NC34CC5CC(CC(C5)C3)C4)N2C(P(=O)(O)O)P(=O)(O)O)cc1` (centres undefined) was over 100 µM.
In turn, `CC1(C)C2CCC1(C)C(N/C(Sc1ccccc1)=C(/C(Cl)=C(Cl)Cl)[N+](=O)[O-])C2` (centres undefined) gave a TGI of 25 µM.
Compound `C/C(=N\NS(=O)(=O)c1ccc(C)cc1)c1ccccn1` yielded a TGI of over 100 µM.
Same read-out and setting: the value for `COc1ccc2nc(N/N=C/c3sccc3C)cc(C)c2c1` was 63.1 µM; that for `C=C(C)C1CCC(C(=O)O)CC1` (centres undefined) was over 100 µM; that for `C=CCCON(C(=O)OC(C)(C)C)c1ccccc1` was over 100 µM.
The same measure, in the same setting: for `Nc1cc([N+](=O)[O-])ccc1C(=O)N1CCC[C@H]1CO` the value was over 100 µM.
Same read-out and setting: the value for `CSc1c(C(=O)Nc2ccccc2)c(N)n(N)c(=O)c1C#N` was over 100 µM.
For `C=CCn1c(N)c(C#N)c(C#N)c1CCC`, the TGI was over 100 µM.
Still for that read-out and setting: the value for `O=C1C2=Cc3ccccc3OC2(O)Oc2cc3ccccc3cc21` (centres undefined) was over 100 µM.

For the next assay, the system named is HCT-116 colon. Briefly: growth of human tumour cells (NCI), 48 h.
The compound `O=C(O)CO[C@@]12C#C/C=C\C#C[C@@H]3N(C(=O)Oc4ccccc4)c4ccccc4[C@]14O[C@@]34CCC2` returned a TGI of over 100 µM.
Still for that read-out and setting: the value for `CC1C2CC(C(S(=O)(=O)O)C2=O)C1(C)C` (centres undefined) was over 100 µM; that for `COc1ccc(/C=C2\N=C(N3CCCCC3)NC2=O)cc1` was over 100 µM.
On the same count and under the same terms, for `CC(C)NC(=O)OCc1c2c(n(C)c1COC(=O)NC(C)C)-c1cc(Cl)c(Cl)cc1CC2` the value was 66.9 µM; for `Cc1ccc(C2(O)CSC(=NC34CC5CC(CC(C5)C3)C4)N2C(P(=O)(O)O)P(=O)(O)O)cc1` (centres undefined), 67.5 µM; for `CNc1ncccc1Nc1cc(=O)n2c3cccnc3n(C)c2c1`, over 100 µM.
On the same count and under the same terms, for `CC1(C)C2CCC1(C)C(N/C(Sc1ccccc1)=C(/C(Cl)=C(Cl)Cl)[N+](=O)[O-])C2` (centres undefined) the value was 28.8 µM; for `O=C(NC1=C(Cl)C(=O)c2ccccc2C1=O)c1ccccc1`, 32.2 µM; for `C/C(=N\NS(=O)(=O)c1ccc(C)cc1)c1ccccn1`, over 100 µM.
`CN(/N=C/c1ccc(C(=O)O)cc1)C1=NCCCCN1` came in with a TGI of over 100 µM.
Compound `COc1ccc2nc(N/N=C/c3sccc3C)cc(C)c2c1` yielded a TGI of 23.8 µM.
Same read-out and setting: the value for `C=C(C)C1CCC(C(=O)O)CC1` (centres undefined) was over 100 µM; that for `C=CCCON(C(=O)OC(C)(C)C)c1ccccc1` was over 100 µM; that for `Nc1cc([N+](=O)[O-])ccc1C(=O)N1CCC[C@H]1CO` was over 100 µM.
`CC[C@@H](C)[C@H](NC(=O)[C@H](Cc1ccccc1)NCC(F)(F)F)C(=O)OC(C)(C)C` came in with a TGI of over 100 µM.
As to `CSc1c(C(=O)Nc2ccccc2)c(N)n(N)c(=O)c1C#N`, the TGI is over 100 µM.
The same measure, in the same setting: for `CCCCCCCC(CC(=O)NC(CO)C(=O)NC(CO)CC(C)C)OC(=O)CC(CCCCCCC)OC(=O)CC(CCCCCCC)OC1OC(C)C(O)C(OC2OC(C)C(OC(C)=O)C(O)C2O)C1O` (centres undefined) the value was 17.9 µM; for `O=C1C2=Cc3ccccc3OC2(O)Oc2cc3ccccc3cc21` (centres undefined), over 100 µM.

The next assay concerns NCI-H522 lung. Briefly: growth of human tumour cells (NCI), 48 h.
In turn, `Clc1ccc(CCN(CCc2ccc(Cl)c(Cl)c2)CCN2CCCC2)cc1Cl` yielded a TGI of 3.2 µM.
`O=C(O)CO[C@@]12C#C/C=C\C#C[C@@H]3N(C(=O)Oc4ccccc4)c4ccccc4[C@]14O[C@@]34CCC2` came in with a TGI of 85.9 µM.
In turn, `CC1C2CC(C(S(=O)(=O)O)C2=O)C1(C)C` (centres undefined) gave a TGI of over 100 µM.
Still for that read-out and setting: for `COc1ccc(/C=C2\N=C(N3CCCCC3)NC2=O)cc1` the value was over 100 µM; for `CNc1ncccc1Nc1cc(=O)n2c3cccnc3n(C)c2c1`, over 100 µM.
The same measure, in the same setting: the value for `O=C(NC1=C(Cl)C(=O)c2ccccc2C1=O)c1ccccc1` was 52.3 µM; that for `CN(/N=C/c1ccc(C(=O)O)cc1)C1=NCCCCN1` was over 100 µM; that for `C=C(C)C1CCC(C(=O)O)CC1` (centres undefined) was over 100 µM.
On the same count and under the same terms, the value for `C=CCCON(C(=O)OC(C)(C)C)c1ccccc1` was over 100 µM; that for `Nc1cc([N+](=O)[O-])ccc1C(=O)N1CCC[C@H]1CO` was over 100 µM; that for `CC[C@@H](C)[C@H](NC(=O)[C@H](Cc1ccccc1)NCC(F)(F)F)C(=O)OC(C)(C)C` was over 100 µM.
The compound `CSc1c(C(=O)Nc2ccccc2)c(N)n(N)c(=O)c1C#N` registered a TGI of over 100 µM.
Same read-out and setting: the value for `C=CCn1c(N)c(C#N)c(C#N)c1CCC` was over 100 µM; that for `CCCCCCCC(CC(=O)NC(CO)C(=O)NC(CO)CC(C)C)OC(=O)CC(CCCCCCC)OC(=O)CC(CCCCCCC)OC1OC(C)C(O)C(OC2OC(C)C(OC(C)=O)C(O)C2O)C1O` (centres undefined) was 24.7 µM.

Another assay has as its system UACC-62 melanoma. Description: growth of human tumour cells (NCI), 48 h.
`Clc1ccc(CCN(CCc2ccc(Cl)c(Cl)c2)CCN2CCCC2)cc1Cl` came in with a TGI of 3.06 µM.
On the same count and under the same terms, for `O=C(O)CO[C@@]12C#C/C=C\C#C[C@@H]3N(C(=O)Oc4ccccc4)c4ccccc4[C@]14O[C@@]34CCC2` the value was 26.5 µM; for `CC1C2CC(C(S(=O)(=O)O)C2=O)C1(C)C` (centres undefined), over 100 µM; for `COc1ccc(/C=C2\N=C(N3CCCCC3)NC2=O)cc1`, over 100 µM.
Same read-out and setting: for `CC(C)NC(=O)OCc1c2c(n(C)c1COC(=O)NC(C)C)-c1cc(Cl)c(Cl)cc1CC2` the value was over 100 µM.
